Reference: ChEMBL document CHEMBL1201862, “PubChem BioAssay data set” (2004)
Calls of active or inactive are those of the source.

What was measured:
[1] = molecular target: T1, Corticotropin-releasing factor receptor 2/Corticotropin-releasing factor-binding protein (Homo sapiens, UniProt P24387+Q13324); experiment: activators of CRF receptor 2 with binding protein – uHTS hits, confirmation (AID 602473); assay type: functional; conditions: read-out: EC50_Mean
T1 sequence (Q13324 whole entry): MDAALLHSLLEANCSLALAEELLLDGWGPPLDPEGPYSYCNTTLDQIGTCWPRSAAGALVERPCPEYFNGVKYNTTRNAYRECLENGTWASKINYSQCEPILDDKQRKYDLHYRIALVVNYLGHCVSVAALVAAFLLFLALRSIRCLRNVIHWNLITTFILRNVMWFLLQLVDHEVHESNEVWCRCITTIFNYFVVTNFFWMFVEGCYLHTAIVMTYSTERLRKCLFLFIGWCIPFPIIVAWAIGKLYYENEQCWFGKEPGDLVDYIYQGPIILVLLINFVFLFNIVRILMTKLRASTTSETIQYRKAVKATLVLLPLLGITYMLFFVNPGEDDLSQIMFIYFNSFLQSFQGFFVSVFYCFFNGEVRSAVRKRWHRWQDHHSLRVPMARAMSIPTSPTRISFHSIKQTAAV
T1 sequence (P24387 whole entry): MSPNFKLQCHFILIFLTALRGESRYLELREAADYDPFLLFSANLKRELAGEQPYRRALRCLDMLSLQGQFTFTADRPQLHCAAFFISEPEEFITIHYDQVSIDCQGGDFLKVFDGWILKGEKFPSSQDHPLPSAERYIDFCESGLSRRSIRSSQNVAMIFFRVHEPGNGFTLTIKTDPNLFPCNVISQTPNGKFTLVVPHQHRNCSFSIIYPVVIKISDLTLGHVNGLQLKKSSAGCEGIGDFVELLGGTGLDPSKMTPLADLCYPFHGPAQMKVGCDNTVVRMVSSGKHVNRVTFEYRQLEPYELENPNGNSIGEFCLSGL

[2] = molecular target: T1, Corticotropin-releasing factor receptor 2/Corticotropin-releasing factor-binding protein; experiment: Dose Response confirmation of uHTS hits for small molecule antagonists of the CRF-binding protein and CRF-R2 receptor complex.; assay type: functional; conditions: read-out: IC50_Mean
[3] = molecular target: T2, Calpain-2 catalytic subunit (Sus scrofa, UniProt P43367); experiment: m-calpain protease blockers, concentration series – biochemical, fluorogenic peptide substrate, dose response (AID 1420); assay type: functional
T2 sequence (P43367 whole entry): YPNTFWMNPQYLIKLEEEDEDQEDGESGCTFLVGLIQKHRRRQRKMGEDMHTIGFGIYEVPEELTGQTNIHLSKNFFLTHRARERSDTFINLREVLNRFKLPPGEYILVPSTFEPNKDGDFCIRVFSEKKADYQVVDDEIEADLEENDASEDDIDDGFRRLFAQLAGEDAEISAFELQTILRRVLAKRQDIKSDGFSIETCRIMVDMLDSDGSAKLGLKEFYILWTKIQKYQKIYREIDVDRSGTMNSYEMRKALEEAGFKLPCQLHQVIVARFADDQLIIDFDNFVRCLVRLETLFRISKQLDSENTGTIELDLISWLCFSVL

[4] = blockers of CRF-binding protein–CRF-R2 complex – cell-based, uHTS hits, 384-well, dose response (AID 651639); assay type: functional, Homo sapiens; conditions: read-out: IC50_Mean
[5] = molecular target: Disintegrin and metalloproteinase domain-containing protein 17 (Homo sapiens, UniProt P78536); experiment: exosite inhibitors of ADAM17, dose response, biochemical (AID 743260)
Disintegrin and metalloproteinase domain-containing protein 17, sequence (P78536 whole entry, the tested form may be a part): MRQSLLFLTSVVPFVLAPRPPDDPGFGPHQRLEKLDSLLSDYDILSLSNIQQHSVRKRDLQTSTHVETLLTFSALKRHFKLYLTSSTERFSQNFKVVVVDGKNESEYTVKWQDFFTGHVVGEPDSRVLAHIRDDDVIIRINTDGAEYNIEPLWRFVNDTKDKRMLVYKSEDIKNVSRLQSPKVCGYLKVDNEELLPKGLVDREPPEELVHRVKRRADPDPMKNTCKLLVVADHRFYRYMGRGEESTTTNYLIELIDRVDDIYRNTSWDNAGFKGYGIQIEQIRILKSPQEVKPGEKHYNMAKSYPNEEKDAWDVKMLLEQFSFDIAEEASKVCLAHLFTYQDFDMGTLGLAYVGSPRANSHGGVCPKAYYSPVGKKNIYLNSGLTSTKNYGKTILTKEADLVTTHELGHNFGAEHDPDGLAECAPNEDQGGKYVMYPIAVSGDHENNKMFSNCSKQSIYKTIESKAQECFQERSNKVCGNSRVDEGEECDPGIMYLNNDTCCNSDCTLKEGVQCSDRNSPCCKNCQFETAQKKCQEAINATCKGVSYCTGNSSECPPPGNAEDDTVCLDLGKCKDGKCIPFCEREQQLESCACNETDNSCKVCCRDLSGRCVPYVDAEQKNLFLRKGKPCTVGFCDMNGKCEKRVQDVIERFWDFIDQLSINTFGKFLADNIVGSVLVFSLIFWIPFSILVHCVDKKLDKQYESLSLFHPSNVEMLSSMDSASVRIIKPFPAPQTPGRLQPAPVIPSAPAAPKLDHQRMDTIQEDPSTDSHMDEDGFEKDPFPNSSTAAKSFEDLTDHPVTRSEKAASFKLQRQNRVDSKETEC

[6] = inhibition of ADAM10 peptide cleavage – biochemical, FRET peptide substrate, recombinant human ADAM10, selectivity assay for ADAM17 exosite inhibitor project, dose response (AID 743259);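 further: ADAM10 enzyme cleaving a FRET peptide substrate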
[7] = molecular target: T3, Rac GTPase-activating protein 1 (Homo sapiens, UniProt Q9H0H5); experiment: blockers of MgcRacGAP-driven Rac1 GTP hydrolysis – biochemical, ADP Hunter fluorescence, primary and confirmatory, confirmation (AID 624330); assay type: functional
T3 sequence (Q9H0H5 whole entry): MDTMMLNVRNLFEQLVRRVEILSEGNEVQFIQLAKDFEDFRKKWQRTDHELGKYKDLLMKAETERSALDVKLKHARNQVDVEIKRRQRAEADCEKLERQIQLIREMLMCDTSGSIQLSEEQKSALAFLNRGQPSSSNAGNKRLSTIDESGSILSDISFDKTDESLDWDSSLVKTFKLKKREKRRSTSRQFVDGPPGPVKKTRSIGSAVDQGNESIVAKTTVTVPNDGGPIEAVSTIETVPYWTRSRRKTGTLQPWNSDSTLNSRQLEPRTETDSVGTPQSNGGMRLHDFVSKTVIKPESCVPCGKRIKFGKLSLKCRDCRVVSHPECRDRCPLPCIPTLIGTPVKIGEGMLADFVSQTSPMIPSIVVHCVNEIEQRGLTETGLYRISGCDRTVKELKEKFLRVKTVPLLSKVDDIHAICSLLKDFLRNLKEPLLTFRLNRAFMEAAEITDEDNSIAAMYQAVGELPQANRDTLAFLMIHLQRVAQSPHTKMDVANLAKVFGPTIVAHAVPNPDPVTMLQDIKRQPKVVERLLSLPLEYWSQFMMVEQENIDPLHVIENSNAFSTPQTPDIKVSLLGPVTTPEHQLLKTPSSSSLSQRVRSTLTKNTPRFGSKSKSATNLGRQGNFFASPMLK

Cytochrome P450 3A4 = Cytochrome P450 3A4 (Homo sapiens, UniProt P08684); conditions: Potency;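 further: confirmatory qHTS run detecting inhibitors and substrates of CYP3A4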
Cytochrome P450 3A4, sequence (P08684 whole entry): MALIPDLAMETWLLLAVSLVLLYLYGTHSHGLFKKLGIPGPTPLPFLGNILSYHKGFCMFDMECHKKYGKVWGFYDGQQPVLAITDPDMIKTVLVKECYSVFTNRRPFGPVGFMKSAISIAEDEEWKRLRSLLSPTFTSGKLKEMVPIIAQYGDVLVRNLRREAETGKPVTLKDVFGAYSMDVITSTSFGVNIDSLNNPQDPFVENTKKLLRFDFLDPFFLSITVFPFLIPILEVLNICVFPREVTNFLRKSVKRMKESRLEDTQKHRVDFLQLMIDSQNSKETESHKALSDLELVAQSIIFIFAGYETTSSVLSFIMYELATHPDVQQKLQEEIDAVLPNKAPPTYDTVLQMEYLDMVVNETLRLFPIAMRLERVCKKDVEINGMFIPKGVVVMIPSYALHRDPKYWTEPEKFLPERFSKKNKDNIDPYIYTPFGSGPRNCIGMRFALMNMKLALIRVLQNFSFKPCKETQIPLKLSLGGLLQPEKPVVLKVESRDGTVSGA

Estrogen receptor = molecular target: T4, Estrogen receptor (Homo sapiens, UniProt P03372);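 further: potency for inhibiting coactivator peptide recruitment to the receptor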
T4 sequence (P03372 whole entry): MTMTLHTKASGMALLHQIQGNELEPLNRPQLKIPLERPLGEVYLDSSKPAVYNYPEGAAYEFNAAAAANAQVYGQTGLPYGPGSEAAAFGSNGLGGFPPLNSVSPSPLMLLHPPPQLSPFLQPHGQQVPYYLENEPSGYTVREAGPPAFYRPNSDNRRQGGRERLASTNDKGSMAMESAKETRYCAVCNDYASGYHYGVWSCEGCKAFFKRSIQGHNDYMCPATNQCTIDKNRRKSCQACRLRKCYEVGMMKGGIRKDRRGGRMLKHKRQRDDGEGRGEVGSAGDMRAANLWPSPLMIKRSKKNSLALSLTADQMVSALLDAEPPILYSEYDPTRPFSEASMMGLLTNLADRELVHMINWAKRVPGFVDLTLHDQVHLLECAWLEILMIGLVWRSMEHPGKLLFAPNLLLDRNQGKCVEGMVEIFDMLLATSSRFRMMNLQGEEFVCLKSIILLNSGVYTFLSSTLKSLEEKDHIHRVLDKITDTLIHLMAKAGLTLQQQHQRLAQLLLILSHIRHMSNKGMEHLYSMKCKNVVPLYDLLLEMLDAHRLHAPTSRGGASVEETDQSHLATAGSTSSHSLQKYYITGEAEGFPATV

[8] = tested on: Streptococcus sp. 'group A'; experiment: Streptococcus pyogenes SK(-)GAS viability under kanamycin – luminescence, BacTiterGlo, confirmation, counter-screen for streptokinase expression inhibitor project, dose response (AID 1900); assay type: functional, organism-based
[9] = general mammalian cell viability loss – inhibitor set, cherry-pick, set 2, cytotoxicity control for miR-122 modulator project, dose response (AID 720697); assay type: functional, cell-based
[10] = NIH3T3 cell viability loss – ATP luminescence, mouse fibroblasts, counter-screen, dose response (AID 2010); assay type: functional, cell-based;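 further: cells exposed to compound for about 90 hours before reading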
cells [11] = assay type: functional, cell-based
Streptococcus = experiment: GAS UMAA2166 growth inhibition – luminescence, BacTiterGlo, counter-screen for streptokinase expression inhibitor project, dose response (AID 1915); assay type: functional, organism-based;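 further: potency for reduction of bacterial viability or growth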
[12] = Vero E6 cell cytotoxicity, dose response, cytotoxicity control for non-replicating M. tuberculosis project, secondary assay (AID 492998); assay type: functional, VeroE6; conditions: Vero C1008
[13] = Trypanosoma cruzi growth suppression in host cells – NIH3T3 host cells, beta-gal luminescence, confirmation (AID 2044); assay type: functional, cell-based;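 further: intracellular parasites grown in NIH/3T3 mouse fibroblasts as host cells; luminescent beta-galactosidase reporter signal from transgenic T. cruzi replicating inside host cells; inhibitors lower the luminescence signal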
[14] = THP-1 cell cytotoxicity, dose response, cytotoxicity control for non-replicating M. tuberculosis project (AID 489025); assay type: functional
cells [15] = assay type: functional
[16] = general mammalian cell viability loss – activator set, cherry-pick, cytotoxicity control for miR-122 modulator project, dose response (AID 720690); assay type: functional, cell-based;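 further: HEK293T human cells scored for general mammalian cytotoxicity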
INS1 = experiment: INS-1E survival protection against cytokine death – cell-based, luminescence, retest, dose response (AID 449756); assay type: functional; conditions: Rattus norvegicus;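 further: cell death triggered by IL-1 beta plus TNF-alpha plus IFN-gamma mixture; protective hits raise ATP signal compared with cytokine alone wells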
cells [17] = assay type: functional, cell-based; remark: listed apart in the source
fMet-Leu-Phe receptor = molecular target: T5, fMet-Leu-Phe receptor (Homo sapiens, UniProt P21462); experiment: formyl peptide receptor binders – dose response (AID 519); assay type: functional
T5 sequence (P21462 whole entry): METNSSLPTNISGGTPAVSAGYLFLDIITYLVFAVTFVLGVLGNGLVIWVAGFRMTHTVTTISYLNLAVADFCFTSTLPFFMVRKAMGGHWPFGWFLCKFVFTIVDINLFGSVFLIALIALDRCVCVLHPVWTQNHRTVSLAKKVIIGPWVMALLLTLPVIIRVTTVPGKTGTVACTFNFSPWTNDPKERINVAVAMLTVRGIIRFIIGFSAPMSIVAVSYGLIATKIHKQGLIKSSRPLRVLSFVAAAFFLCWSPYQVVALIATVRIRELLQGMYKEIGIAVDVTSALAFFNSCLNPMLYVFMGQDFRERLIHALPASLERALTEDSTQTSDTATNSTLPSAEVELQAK

[18] = viability loss in HepG2 hepatoma cells – cell-based, ATP luminescence, cherry-pick, activator set 2, cytotoxicity control, dose response (AID 1053143); assay type: functional

With `COc1cccc(CNc2ccc([N+](=O)[O-])cc2C)c1` as the molecule, how does the EC50 [1] read?
Its EC50 is > 53 µM (inactive).

And the IC50 [2]?
The IC50 was 9.05 µM (active).

What about the IC50 [3] of the same molecule?
Its IC50 is 41 µM (not active).

What about the IC50 [4] of the same molecule?
The IC50 was 20 µM (active).

And the IC50 [5]?
The IC50 was > 69.5 µM (inactive).

What about the IC50 [6] of the same molecule?
The IC50 was 27.4 µM (inactive).

For `Cc1cc(-c2ccc(N)c(C)c2)ccc1N` [ORTHOTOLIDINE], which IC50 [7] is on record?
The IC50 was 12.2 µM (active).

What about the AC50 (Cytochrome P450 3A4) of the same molecule?
Its AC50 is 20 µM (inconclusive).

Which IC50 (Estrogen receptor) does the source give for `NC(=O)c1c(NC(=O)c2cccs2)sc2c1CCCCCC2` here?
Its IC50 is 25.9 µM (active).

Which EC50 [8] does the source give for `Oc1ccccc1/C=N/Nc1nc2ccccc2o1` here?
The EC50 was 1.9 µM (active).

What about the AC50 [9] of the same molecule?
Its AC50 is 2.53 µM (active).

And the EC50 [10]?
The EC50 was > 60 µM (not active).

And the EC50 (cells [11])?
The EC50 was 4.02 µM (active).

What about the EC50 (Streptococcus) of the same molecule?
Its EC50 is 4.17 µM (active).

What about the CC50 [12] of the same molecule?
The CC50 was 2.59 µM (active).

And the EC50 [13]?
The EC50 was 2.92 µM (active).

What about the CC50 [14] of the same molecule?
Its CC50 is 1.68 µM (active).

What about the IC50 (cells [15]) of the same molecule?
Its IC50 is 33.3 µM (active).

And the AC50 [16]?
The AC50 was 5.79 µM (active).

What about the AC50 (INS1) of the same molecule?
The AC50 was 1.59 µM (active).

And the EC50 (cells [17])?
The EC50 was > 350 µM (not active).

Which IC50 [5] does the source give for `O=C(CSc1nc2ccccc2c(=O)n1-c1ccccc1Cl)Nc1cccc(S(=O)(=O)N2CCOCC2)c1` here?
Its IC50 is > 69.5 µM (inactive).

And the IC50 [6]?
Its IC50 is > 69.5 µM (inactive).

With `COc1ccccc1Oc1c(C)oc2cc(OC(=O)c3ccco3)ccc2c1=O` as the molecule, how does the Ki (fMet-Leu-Phe receptor) read?
Its Ki is 19.4 µM (inactive).

For `COc1ccc(-n2c(Cc3cccn3C)nnc2SCC(=O)Nc2ccc(Cl)cc2)cc1`, which Ki (fMet-Leu-Phe receptor) is on record?
The Ki was 32.9 µM (inactive).

Which EC50 (cells [11]) does the source give for `COc1ccc(CCNC(=O)c2cc(-c3ccco3)on2)cc1OC` here?
Its EC50 is > 350 µM (not active).

And the AC50 [18]?
The AC50 was 26 µM (active).

What about the EC50 (cells [17]) of the same molecule?
Its EC50 is 12.5 µM (active).

For `Cc1ccc(C(=O)Nc2nc3ccc(S(C)(=O)=O)cc3s2)o1`, which AC50 [18] is on record?
The AC50 was 26 µM (active).

For `O=C(/C=C\c1ccco1)Oc1cccc2cccnc12`, which AC50 [18] is on record?
Its AC50 is 26 µM (active).
